As usually defined, the IC50 is the point on the concentration scale where inhibition reaches its midpoint.

This note sets out measurements from ChEMBL document CHEMBL5728837, “Non-fused tricyclic compounds” (2021).

A value given as a limit tells only on which side of the number the result lay.

The first test can be described thus: YAP Reporter Assay: HEK293T cells stably transfected with 8XTBD luciferase reporter and pRLTK in 384-well plates were treated with the test compounds, starting from 3 μM (final concentration in assay plate), 1:3 dilution, and 10 points in quadruplicates. Post 24-hr incubation with compounds at 37° C. and 5% CO2, cells were lysed and 8XTBD-driven firefly luciferase and control TK-driven renilla luciferase activities were measured using Promega Dual-Luciferase Reporter Assay System.Reagents: The reagents used for this study are: DMEM: Invitrogen #11960077, Dual-Glo Luciferase Assay System: Promega-E2980, Puromycin Dihydrochloride: Invitrogen-A1113803, 384-well plate: PerkinElmer-6007480, L-GLUTAMINE: Invitrogen-25030164, Hygromycin B: Invitrogen-10687010, and Penicillin-Streptomycin: Merk-TMS-AB2-CMedia: The media used for this assay were: Culture Medium: DMEM+1 ug/mL puromycin+200 ug/mL hygromycin (with 10% FBS+1 mM L-glutamine); and Assay Medium: DMEM (with 10% FBS+1 mM L-glutamine+1× P/S).Cell Plating: The appropriate media was warmed at 37° C. by water bath: Culture Medium, Assay Medium, 1*D-PBS, 0.05% trypsin-EDTA. The cells were trypsinized after removing all media, then washed with 1*sterile D-PBS and then with 2 ml 0.05% trypsin-EDTA. The cells were then incubated at RT for one minute. Then 10 ml/75 cm2 flask Assay Medium was added to each flask. Using a 10 ml pipette, the cells were then gently resuspended in the media, until the clumps completely disappeared. The cells were then transferred into 50 ml centrifuge tubes and were centrifuged at 800 rpm for 5 mins. The medium was removed and the cells were resuspended with Assay Medium. An aliquot of cells was used to count the cell density (cells/nil). The cell suspension was then diluted with Assay Medium to a concentration of 6×10^4 cells/ml. 50 ul cells suspension was then plated to 384-well plate (PerkinElmer-6007480), 3×10^3 cells/well and the cells were incubated in an incubator at 37° C., 5% CO2.Compound Treatment: In the afternoon (incubation of the plate with 3-4 hrs), the test compounds were added by Echo, starting from 3 uM (final concentration in the assay plate), 1:3 dilution, 10 points, quadruplicates. The plate was placed at 37° C., 5% CO2 incubator for 24 hrs.Detection: The Dual-Glo Luciferase Reagent was prepared by transferring the contents of one bottle of Dual-Glo Luciferase Buffer to one bottle of Dual-Glo Luciferase Substrate to create the Dual-Glo Luciferase Reagent. Mixing was performed by inversion until the substrate was thoroughly dissolved. After mixing, the reagent was aliquoted into 15 ml tubes. In the afternoon (24 hrs post compound treatment), the DMEM+ medium in the 384 well plates were aspirated by Microplate Washer.Measuring firefly luciferase activity: 20 ul Dual-Glo Luciferase Reagent was added to the 384-well plates. The plates were protected from light to prevent interference with the assay. The plates were shaken for 1 min followed centrifuging plates at 1000 rpm for 30 seconds. After waiting at least 10 minutes, the firefly luminescence was measured by Envision.Measuring renilla luciferase activity: 20 ul Stop-Glo Reagent was added to the 384-well plates. The plates were shaken for lmin and then centrifuged at 1000 rpm for 30 seconds. After waiting at least 10 minutes, the renilla luminescence was measured by Envision.
Details: not given
On the technique in general: Reporter assays use an easily measured gene product as a stand-in for the process of interest.
`OCCn1nnc(-c2ccccc2Nc2ccc(C(F)(F)F)cc2)n1`: the IC50 is less than 100 nM.

Take `OCCn1nnc(-c2ccccc2Nc2cccc(C(F)(F)F)c2)n1`: the IC50 result is “in the range around 3000 nM”.

The same test, now with this note: HEK-293T, 24 h.
With `OC(Cn1nnc(-c2ccccc2Nc2ccc(C(F)(F)F)cc2)n1)C(F)(F)F` (stereo unspecified), the IC50 is less than 100 nM. Still for that read-out and setting: next, `OC1(Cn2nnc(-c3ccccc3Nc3ccc(C(F)(F)F)cc3)n2)CCNCC1`: “in the range around 3000 nM”; `CN(C)CCCn1nnc(-c2ccccc2Nc2ccc(C(F)(F)F)cc2)n1`: “in the range around 3000 nM”.

Turning to `CS(=O)(=O)NCCCn1nnc(-c2ccccc2Nc2ccc(C(F)(F)F)cc2)n1`, the IC50 entry is “in the range around 3000 nM”. On the same count and under the same terms, next, `OCCn1nnc(-c2cccnc2Nc2ccc(C(F)(F)F)cc2)n1`: “in the range around 550 nM”; `OCCn1nnc(-c2ccccc2Nc2cccc(F)c2)n1`: “in the range around 550 nM”.

`OCCn1nnc(-c2ccccc2Nc2ccc(F)cc2F)n1`: the IC50 result was “in the range around 550 nM”. Turning to `OCCn1nnc(-c2cccnc2Nc2ccc(OC(F)(F)F)cc2)n1`, the IC50 result was “in the range around 550 nM”. The same measure, in the same setting: next, `OCCn1nnc(-c2ccccc2Nc2cccc(OC(F)(F)F)c2)n1`: “in the range around 550 nM”. The same measure, in the same setting: next, `CN(C)CCCn1nnc(-c2ccccc2Nc2ccc(OC(F)(F)F)cc2)n1`: “in the range around 3000 nM”; `FC(F)(F)Oc1ccc(Nc2ccccc2-c2nnn(Cc3cccnc3)n2)cc1`: “in the range around 3000 nM”; `NC(=O)NCCn1nnc(-c2ccccc2Nc2ccc(C(F)(F)F)cc2)n1`: less than 100 nM.

`CC(C)(O)Cn1nnc(-c2ccccc2Nc2ccc(C(F)(F)F)cc2)n1`: the IC50 is less than 100 nM. Still for that read-out and setting: next, `O=C(Cn1nnc(-c2ccccc2Nc2ccc(C(F)(F)F)cc2)n1)N1CCCC1`: “in the range around 550 nM”; `CC(CO)n1nnc(-c2ccccc2Nc2ccc(C(F)(F)F)cc2)n1` (stereo unspecified): less than 100 nM.

In the case of `COCCn1nnc(-c2ccccc2Nc2cccc(C(F)(F)F)c2)n1`, the IC50 result was “in the range around 3000 nM”. `CCOC(=O)Cn1cc(-c2ccccc2Nc2cccc(C(F)(F)F)c2)cn1`: the concentration for half-maximal inhibition (IC50) entry was “in the range around 550 nM”. Same read-out and setting: the result for `NC(=O)OCCn1nnc(-c2ccccc2Nc2ccc(C(F)(F)F)cc2)n1` reads less than 100 nM; that for `OCCn1nnc(-c2ccccc2Nc2ccc(C(F)(F)F)cc2)n1`, less than 100 nM. On the same count and under the same terms, the result for `CCc1cccc(Nc2ccccc2-c2nnn(CCO)n2)c1` reads “in the range around 550 nM”. The same measure, in the same setting: next, `NC(=O)Cn1nnc(-c2ccccc2Nc2ccc(C(F)(F)F)cc2)n1`: less than 100 nM; `FC(F)(F)c1ccc(Nc2ccccc2-c2nnn(Cc3ccncc3)n2)cc1`: “in the range around 550 nM”; `CC(=O)NCCCn1nnc(-c2ccccc2Nc2ccc(C(F)(F)F)cc2)n1`: “in the range around 550 nM”. As for `CCOC(=O)Cn1nnc(-c2ccccc2Nc2ccc(F)cc2)n1`, the IC50 result is “in the range around 550 nM”. `FC(F)(F)c1ccc(Nc2ccccc2-c2nnn(C3COC3)n2)cc1`: the IC50 was less than 100 nM. Still for that read-out and setting: next, `OCCn1nnc(-c2cnccc2Nc2ccc(C(F)(F)F)cc2)n1`: “in the range around 3000 nM”; `OCCn1nnc(-c2ccccc2Nc2ccccc2F)n1`: “in the range around 3000 nM”. `CCOC(=O)C(C)n1nnc(-c2ccccc2Nc2ccc(C(F)(F)F)cc2)n1` (stereo unspecified): the IC50 is less than 100 nM. The same measure, in the same setting: the result for `FCCCn1nnc(-c2ccccc2Nc2ccc(C(F)(F)F)cc2)n1` reads “in the range around 550 nM”; that for `FCCn1nnc(-c2ccccc2Nc2ccc(C(F)(F)F)cc2)n1`, “in the range around 550 nM”. With `OC(Cn1nnc(-c2ccccc2Nc2ccc(C(F)(F)F)cc2)n1)C1CC1` (stereo unspecified), the IC50 was less than 100 nM. On the same count and under the same terms, next, `CC(O)Cn1nnc(-c2ccccc2Nc2ccc(C(F)(F)F)cc2)n1` (stereo unspecified): less than 100 nM; `FC(F)(F)c1ccc(Nc2ccccc2-c2nnn(Cc3cccnc3)n2)cc1`: “in the range around 550 nM”. Same read-out and setting: the result for `FC(F)(F)Oc1ccc(Nc2ccccc2-c2nnn(Cc3ccccn3)n2)cc1` reads “in the range around 3000 nM”; that for `OCCn1nnc(-c2ccccc2Nc2ccc(F)cc2)n1`, “in the range around 550 nM”; that for `O=C1NCC(Cn2nnc(-c3ccccc3Nc3ccc(C(F)(F)F)cc3)n2)O1` (stereo unspecified), “in the range around 550 nM”.

For `OCC(O)Cn1nnc(-c2ccccc2Nc2ccc(C(F)(F)F)cc2)n1` (stereo unspecified), the IC50 was less than 100 nM. The same measure, in the same setting: next, `CCOC(=O)Cn1ncc(-c2ccccc2Nc2ccc(C(F)(F)F)cc2)c1C`: less than 100 nM. Still for that read-out and setting: the result for `CCN(CC)C(=O)Cn1nnc(-c2ccccc2Nc2ccc(C(F)(F)F)cc2)n1` reads “in the range around 3000 nM”; that for `OCCn1nnc(-c2ccccc2Nc2cccc(C(F)(F)F)c2)n1`, “in the range around 3000 nM”; that for `NS(=O)(=O)NCCn1nnc(-c2ccccc2Nc2ccc(C(F)(F)F)cc2)n1`, “in the range around 3000 nM”. The same measure, in the same setting: the result for `CNC(=O)Cn1nnc(-c2ccccc2Nc2ccc(C(F)(F)F)cc2)n1` reads less than 100 nM.

`CCOC(=O)Cn1ncc(-c2ccccc2Nc2cccc(C(F)(F)F)c2)c1C`: the IC50 entry was “in the range around 3000 nM”. Same read-out and setting: next, `OCCn1nnc(-c2ccccc2Nc2ccc(F)c(F)c2)n1`: “in the range around 550 nM”; `CC(=O)NCCn1nnc(-c2ccccc2Nc2ccc(C(F)(F)F)cc2)n1`: “in the range around 550 nM”. Take `CS(=O)(=O)NCCn1nnc(-c2ccccc2Nc2ccc(C(F)(F)F)cc2)n1`: the IC50 entry is “in the range around 3000 nM”. On the same count and under the same terms, the result for `O=C(Cn1nnc(-c2ccccc2Nc2ccc(C(F)(F)F)cc2)n1)c1ccccc1` reads “in the range around 3000 nM”; that for `OCCCn1nnc(-c2ccccc2Nc2cccc(C(F)(F)F)c2)n1`, “in the range around 550 nM”; that for `FC(F)(F)c1ccc(Nc2ccccc2-c2nnn(C3CCOC3)n2)cc1` (stereo unspecified), less than 100 nM. Still for that read-out and setting: next, `Cc1nn(CCO)cc1-c1ccccc1Nc1ccc(C(F)(F)F)cc1`: “in the range around 3000 nM”; `FC(F)(F)c1ccc(Nc2ccccc2-c2nnn(C3CCCOC3)n2)cc1` (stereo unspecified): “in the range around 550 nM”; `FC(F)(F)c1ccc(Nc2ccccc2-c2nnn(C3CCOCC3)n2)cc1`: “in the range around 550 nM”. Still for that read-out and setting: next, `CCOC(=O)Cn1cc(-c2ccccc2Nc2ccc(C(F)(F)F)cc2)cn1`: less than 100 nM; `COc1ccc(Nc2ccccc2-c2nnn(CCO)n2)cc1`: “in the range around 550 nM”; `COCC(C)n1nnc(-c2ccccc2Nc2ccc(C(F)(F)F)cc2)n1` (stereo unspecified): less than 100 nM. With `O=C(O)Cn1cc(-c2ccccc2Nc2ccc(C(F)(F)F)cc2)cn1`, the IC50 result is “in the range around 550 nM”. Still for that read-out and setting: the result for `Cc1c(-c2ccccc2Nc2ccc(C(F)(F)F)cc2)cnn1CCO` reads “in the range around 3000 nM”; that for `OCCn1nnc(-c2ccccc2Nc2ccc(SC(F)F)cc2)n1`, “in the range around 550 nM”. As for `CCc1ccc(Nc2ccccc2-c2nnn(CCO)n2)cc1`, the IC50 result was “in the range around 550 nM”. On the same count and under the same terms, next, `CCOC(=O)Cn1cc(-c2ccccc2Nc2cccc(C(F)(F)F)c2)nn1`: “in the range around 3000 nM”; `OCCCn1nnc(-c2ccccc2Nc2ccc(C(F)(F)F)cc2)n1`: less than 100 nM; `C[C@H](c1ccccc1)N1C(=O)OC[C@H]1Cn1nnc(-c2ccccc2Nc2ccc(C(F)(F)F)cc2)n1`: “in the range around 550 nM”. On the same count and under the same terms, next, `CCOC(=O)Cn1cc(-c2ccccc2Nc2ccc(C(F)(F)F)cc2)c(C)n1`: “in the range around 550 nM”; `CNC(=O)Cn1nnc(-c2ccccc2Nc2ccc(OC(F)(F)F)cc2)n1`: “in the range around 550 nM”. On the same count and under the same terms, next, `OCCn1nnc(-c2ccccc2Nc2ccc(OC(F)(F)F)cc2)n1`: less than 100 nM; `OC1(Cn2nnc(-c3ccccc3Nc3ccc(C(F)(F)F)cc3)n2)CCCCC1`: “in the range around 550 nM”. For the compound `CN(C)C(=O)Cn1nnc(-c2ccccc2Nc2ccc(C(F)(F)F)cc2)n1`, the IC50 result is “in the range around 550 nM”. Consider `NS(=O)(=O)Cn1nnc(-c2ccccc2Nc2ccc(C(F)(F)F)cc2)n1`, for which the IC50 entry is “in the range around 550 nM”. Still for that read-out and setting: next, `FC(F)(F)c1ccc(Nc2ccccc2-c2nnn(Cc3ccccn3)n2)cc1`: “in the range around 550 nM”; `O=C(Cn1nnc(-c2ccccc2Nc2ccc(C(F)(F)F)cc2)n1)NO`: “in the range around 550 nM”. The same measure, in the same setting: next, `O=C(Cn1nnc(-c2ccccc2Nc2ccc(C(F)(F)F)cc2)n1)C1CC1`: “in the range around 550 nM”. On the same count and under the same terms, the result for `CN(C)CCn1nnc(-c2ccccc2Nc2ccc(C(F)(F)F)cc2)n1` reads “in the range around 550 nM”; that for `CC(C)C(=O)Cn1nnc(-c2ccccc2Nc2ccc(C(F)(F)F)cc2)n1`, “in the range around 550 nM”. In the case of `OC1(Cn2nnc(-c3ccccc3Nc3ccc(C(F)(F)F)cc3)n2)CCOCC1`, the IC50 result was “in the range around 550 nM”.
